Experimental findings from PubChem BioAssay (NCI) are described below.

Test systems include PC-3 prostate; K-562 leukemia; SF-268 CNS; RPMI-8226 leukemia; SF-295 CNS; UACC-257 melanoma; HOP-62 NSCLC; UACC-62 melanoma; HCT-15 colon; A498 renal.
Holding throughout (assay): NCI tumour cell line growth inhibition, 48 h

Values joined by “and” are separate entries in the source; they are usually repeats but may differ in a detail not shown here. Equal entries are not always repeated.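 Tested at 5 concentrations; 48 h exposure; 96-well plates; endpoints linearly interpolated, else capped at highest concentration. GI50 is the concentration that inhibits growth by half. TGI marks complete inhibition of growth.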

Turning to `O=C(C#Cc1ccccc1)N1CCCCC1`, the TGI in the test on PC-3 prostate, with K-562 leukemia, with SF-268 CNS, in the test on RPMI-8226 leukemia, with SF-295 CNS and in the test with UACC-257 melanoma was > 100 µM throughout. For the same molecule, the TGI with HOP-62 NSCLC, in the test on UACC-62 melanoma, with HCT-15 colon and in the test with A498 renal was > 100 µM throughout.

`c1ccc(OCC[P+](c2ccccc2)(c2ccccc2)c2ccccc2)cc1`: the GI50 in the test on PC-3 prostate is 535 nM; with K-562 leukemia, 743 nM; with SF-268 CNS it was 2.05 µM; with RPMI-8226 leukemia, 0.187 µM; in the test with SF-295 CNS it was 2.05 µM; in the test on UACC-257 melanoma it was 425 nM. Besides, the GI50 in the test on HOP-62 NSCLC was 1.41 µM; with UACC-62 melanoma it was 678 nM; with HCT-15 colon, 12000 nM; in the test on A498 renal, 3.53 µM. Moreover, the TGI was 11.6 µM with PC-3 prostate; > 85.5 µM with K-562 leukemia; 13.5 µM with SF-268 CNS; 2.14 µM in the test with RPMI-8226 leukemia; 15.7 µM in the test on SF-295 CNS; 5.41 µM in the test with UACC-257 melanoma. The TGI was 11.1 µM with HOP-62 NSCLC, 8.99 µM in the test with UACC-62 melanoma, > 100 µM with HCT-15 colon and 16.6 µM with A498 renal.

With `Cc1cc(C(=O)NOCCO)c(Nc2ccc(I)cc2F)n(C)c1=O`, the GI50 is > 100000 nM in the test on PC-3 prostate; 321 nM and 190 nM in the test with K-562 leukemia; > 100 µM in the test on SF-268 CNS; > 10 µM and 37.9 µM in the test with RPMI-8226 leukemia; > 100 µM in the test with SF-295 CNS; 1.86 nM and < 10 nM with UACC-257 melanoma. Besides, the GI50 in the test on UACC-62 melanoma is 1.5 nM and < 10 nM; with HCT-15 colon it was > 3010 nM and 2640 nM; with A498 renal it was 0.00323 µM and 0.0103 µM. For the same molecule, the TGI in the test with PC-3 prostate was > 100 µM; in the test on K-562 leukemia, > 100 µM; with SF-268 CNS, > 100 µM; in the test with RPMI-8226 leukemia, > 100 µM; in the test on SF-295 CNS it was > 100 µM; in the test on UACC-257 melanoma, 0.0128 µM and < 0.0197 µM. Also, the TGI with HOP-62 NSCLC is > 100 µM; in the test with UACC-62 melanoma, 0.0116 µM and 0.0221 µM; in the test with HCT-15 colon, > 100 µM; with A498 renal, 0.0286 µM and 0.0435 µM.

On to `O=C(Nc1ccc([N+](=O)[O-])cc1Cl)c1cc(Cl)ccc1O`, for which the GI50 is 203 nM and 295 nM with PC-3 prostate; 120 nM and 210 nM with K-562 leukemia; 0.152 µM and 0.317 µM in the test with SF-268 CNS; 0.0502 µM and 0.176 µM in the test on RPMI-8226 leukemia; 0.112 µM and 0.207 µM with SF-295 CNS; 84.6 nM and 185 nM in the test on UACC-257 melanoma. For the same molecule, the GI50 in the test with HOP-62 NSCLC is 0.149 µM and 0.262 µM; with UACC-62 melanoma it was 77.3 nM and 67.8 nM; with HCT-15 colon, 154 nM and 260 nM; in the test on A498 renal, 0.0329 µM and 0.0832 µM. The TGI in the test with PC-3 prostate was 5.42 µM and > 38.7 µM; in the test on RPMI-8226 leukemia it was 0.287 µM; in the test with SF-295 CNS, 0.308 µM and 0.609 µM; with UACC-257 melanoma it was 0.267 µM and 0.603 µM; in the test on HOP-62 NSCLC it was 0.469 µM; in the test on UACC-62 melanoma it was 0.568 µM and 0.392 µM. Besides, the TGI in the test on HCT-15 colon was 3.2 µM; with A498 renal it was 0.171 µM and 0.353 µM.

With `N/C(=N/O)NOCCC(N)C(=O)O` (stereo not given), the GI50 with PC-3 prostate is > 100000 nM; in the test on K-562 leukemia, > 100000 nM; in the test with SF-268 CNS it was > 100 µM; in the test with RPMI-8226 leukemia it was > 100 µM; in the test on SF-295 CNS it was > 100 µM; in the test on UACC-257 melanoma, > 100000 nM. Further, the GI50 with HOP-62 NSCLC is > 100 µM; with UACC-62 melanoma it was > 100000 nM; with HCT-15 colon, > 100000 nM; in the test on A498 renal, > 100 µM. Besides, the TGI with PC-3 prostate, in the test with K-562 leukemia, with SF-268 CNS, with RPMI-8226 leukemia, in the test with SF-295 CNS and with UACC-257 melanoma was > 100 µM in each case. In addition, the TGI in the test on HOP-62 NSCLC, in the test with UACC-62 melanoma, with HCT-15 colon and with A498 renal was > 100 µM each time.

`O=C(Nc1n[nH]c2cc(-c3ccc(F)cc3)ccc12)C1CC1`: the GI50 was 7980 nM in the test on PC-3 prostate; 3690 nM with K-562 leukemia; 11 µM in the test with SF-268 CNS; 8.44 µM with RPMI-8226 leukemia; 9.07 µM in the test on SF-295 CNS; 14100 nM with UACC-257 melanoma. Besides, the GI50 is 8.37 µM in the test on HOP-62 NSCLC, 12600 nM in the test on UACC-62 melanoma, 5700 nM in the test on HCT-15 colon and 12.3 µM in the test with A498 renal. Also, the TGI with PC-3 prostate is > 25 µM; with K-562 leukemia, > 25 µM; with SF-268 CNS it was > 25 µM; in the test with RPMI-8226 leukemia, > 25 µM; in the test with SF-295 CNS, 24.6 µM; in the test on UACC-257 melanoma, > 25 µM. Also, the TGI with HOP-62 NSCLC is > 23.7 µM; with UACC-62 melanoma it was > 25 µM; in the test with HCT-15 colon it was > 25 µM; in the test on A498 renal, > 25 µM.

Consider `O=C(Nc1c(Cl)cccc1Cl)Oc1cccc2cccnc12`, for which the GI50 was 6260 nM in the test on PC-3 prostate; 4520 nM with K-562 leukemia; 5.46 µM with SF-268 CNS; 3.64 µM with RPMI-8226 leukemia; 6.68 µM with SF-295 CNS; 2740 nM in the test on UACC-257 melanoma. Further, the GI50 with HOP-62 NSCLC was 5.63 µM; in the test on UACC-62 melanoma, 3040 nM; with HCT-15 colon, 992 nM; in the test with A498 renal it was 7.99 µM. Also, the TGI in the test with PC-3 prostate was > 100 µM; in the test on K-562 leukemia it was > 100 µM; in the test on SF-268 CNS it was > 100 µM; in the test with RPMI-8226 leukemia it was 47.7 µM; in the test on SF-295 CNS, 69 µM; in the test on UACC-257 melanoma, 9.72 µM. Moreover, the TGI in the test with HOP-62 NSCLC was 21 µM; in the test with UACC-62 melanoma it was 10 µM; with HCT-15 colon it was > 100 µM; in the test with A498 renal it was 48 µM.

With `Nc1nc(N)c2c(n1)NC(c1ccc(Cl)cc1)C1CCc3ccccc3C1=N2` (stereo not given), the GI50 in the test on PC-3 prostate is 2860 nM; with SF-268 CNS, 12.4 µM; in the test on RPMI-8226 leukemia, 2.75 µM; with SF-295 CNS, 3.37 µM; in the test on UACC-257 melanoma, 7070 nM; in the test on HOP-62 NSCLC it was 11.5 µM. For the same molecule, the GI50 with UACC-62 melanoma is 3660 nM; with HCT-15 colon, 4160 nM; in the test with A498 renal, 5.34 µM. The TGI was found to be 14.5 µM with PC-3 prostate; 26.9 µM in the test on SF-268 CNS; 11.5 µM in the test on RPMI-8226 leukemia; 14.7 µM with SF-295 CNS; 19.6 µM with UACC-257 melanoma; 23.7 µM in the test with HOP-62 NSCLC. The TGI with UACC-62 melanoma worked out at 18.3 µM; in the test with HCT-15 colon it was 18.5 µM; in the test with A498 renal, 19 µM.
